Assay results from PubChem BioAssay AID256 (DTP/NCI, 2004).
Several values for one entry are separate records, joined by “and”; a condition that tells them apart may be missing. Identical values can stand only once. Toxic doses and inconclusive results are not listed.

Test system: CD2F1 mice, L1210 leukemia ip, survival T/C
Assay: NCI In Vivo Anticancer Drug Screen. Data for tumor model L1210 Leukemia (intraperitoneal) in CD2F1 (CDF1) mice
Settings: higher = longer survival
Summary of the method: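 Transplantable tumor in mice; compound-treated vs vehicle-treated groups. Read-out = treated/control ratio of the measured endpoint.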

[1] = endpoint: mean survival time, dose: 50.0 mg/kg/injection, schedule: Q04DX002 (ip), vehicle: saline with Tween-80
[2] = endpoint: mean survival time, dose: 100.0 mg/kg/injection, schedule: Q04DX002 (ip), vehicle: saline with Tween-80
[3] = endpoint: mean survival time, dose: 100.0 mg/kg/injection, schedule: Q01DX009 (ip), vehicle: saline
[4] = endpoint: mean survival time, dose: 100.0 mg/kg/injection, schedule: Q04DX003 (ip), vehicle: saline
[5] = endpoint: mean survival time, dose: 200.0 mg/kg/injection, schedule: Q04DX003 (ip), vehicle: saline
[6] = endpoint: mean survival time, dose: 50.0 mg/kg/injection, schedule: Q01DX009 (ip), vehicle: saline

O=c1c2ccccc2c2nccc3c4ccccc4n1c32
T/C (endpoint: mean survival time, dose: 100.0 mg/kg/injection, schedule: Q01DX009 (ip), vehicle: saline with Tween-80): 103 % of control
T/C (endpoint: mean survival time, dose: 100.0 mg/kg/injection, schedule: Q04DX003 (ip), vehicle: saline with Tween-80): 102 % of control
T/C (endpoint: mean survival time, dose: 200.0 mg/kg/injection, schedule: Q01DX009 (ip), vehicle: saline with Tween-80): 105 % of control
T/C (endpoint: mean survival time, dose: 200.0 mg/kg/injection, schedule: Q04DX003 (ip), vehicle: saline with Tween-80): 107 % of control
T/C (endpoint: mean survival time, dose: 400.0 mg/kg/injection, schedule: Q01DX009 (ip), vehicle: saline with Tween-80): 100 % of control
T/C (endpoint: mean survival time, dose: 400.0 mg/kg/injection, schedule: Q04DX003 (ip), vehicle: saline with Tween-80): 107 % of control

O=C(O)c1ccc(C(=O)O)c(C(=O)O)c1.[NH-]C1CCCCC1[NH-].[Pd+2]
T/C (endpoint: mean survival time, dose: 9.36 mg/kg/injection, schedule: Q04DX003 (ip), vehicle: sodium bicarbonate): 98 % of control
T/C (endpoint: mean survival time, dose: 18.75 mg/kg/injection, schedule: Q04DX003 (ip), vehicle: sodium bicarbonate): 101 % of control
T/C (endpoint: mean survival time, dose: 75.0 mg/kg/injection, schedule: Q04DX003 (ip), vehicle: sodium bicarbonate): 101 % of control
T/C (endpoint: mean survival time, dose: 150.0 mg/kg/injection, schedule: Q04DX003 (ip), vehicle: sodium bicarbonate): 101 % of control

O=C1CCC(C(=O)Nc2ccc(Cl)cc2Cl)N1 (stereo not given)
T/C (endpoint: mean survival time, dose: 25.0 mg/kg/injection, schedule: Q04DX002 (ip), vehicle: saline with Tween-80): 98 % of control
T/C [1]: 98 % of control
T/C [2]: 98 % of control
T/C (endpoint: mean survival time, dose: 200.0 mg/kg/injection, schedule: Q04DX002 (ip), vehicle: saline with Tween-80): 118 % of control
T/C (endpoint: mean survival time, dose: 400.0 mg/kg/injection, schedule: Q04DX002 (ip), vehicle: saline with Tween-80): 97 % of control

O=C(CC(O)C(Cl)(Cl)Cl)c1ccccc1 (stereo not given)
T/C [1]: 88 % of control
T/C [2]: 88 % of control

COc1ccc(S(=O)[O-])cc1.C[c-]1[c-][c-][c-][c-]1.[C-]#[O+].[C-]#[O+].[Fe+6]
T/C (endpoint: mean survival time, dose: 6.25 mg/kg/injection, schedule: Q04DX002 (ip), vehicle: other): 95 % of control
T/C (endpoint: mean survival time, dose: 12.5 mg/kg/injection, schedule: Q04DX002 (ip), vehicle: other): 114 % of control
T/C (endpoint: mean survival time, dose: 25.0 mg/kg/injection, schedule: Q04DX002 (ip), vehicle: other): 100 % of control

NC(=O)C[n+]1cccc(C(=O)Nc2ccccc2)c1
T/C (endpoint: mean survival time, dose: 100.0 mg/kg/injection, schedule: Q01DX009 (ip), vehicle: saline sonified): 95 % of control
T/C (endpoint: mean survival time, dose: 200.0 mg/kg/injection, schedule: Q01DX009 (ip), vehicle: saline sonified): 89 % of control

CN1CCC(Br)(C(=O)c2ccccc2)CC1
T/C (endpoint: mean survival time, dose: 37.5 mg/kg/injection, schedule: Q01DX009 (ip), vehicle: saline with Tween-80): 100 % of control
T/C (endpoint: mean survival time, dose: 75.0 mg/kg/injection, schedule: Q01DX009 (ip), vehicle: saline with Tween-80): 95 % of control
T/C (endpoint: mean survival time, dose: 75.0 mg/kg/injection, schedule: Q04DX003 (ip), vehicle: saline with Tween-80): 97 % of control
T/C (endpoint: mean survival time, dose: 150.0 mg/kg/injection, schedule: Q01DX009 (ip), vehicle: saline with Tween-80): 92 % of control
T/C (endpoint: mean survival time, dose: 150.0 mg/kg/injection, schedule: Q04DX003 (ip), vehicle: saline with Tween-80): 98 % of control

O=C1C2C3C=CC(C2C(=O)N1CO)C1C2C(=O)N(CO)C(=O)C2C31 (stereo not given)
T/C (endpoint: median survival time, dose: 6.25 mg/kg/injection, schedule: Q01DX009 (ip), vehicle: water): 104 % of control
T/C (endpoint: median survival time, dose: 12.5 mg/kg/injection, schedule: Q01DX009 (ip), vehicle: water): 107 % of control
T/C (endpoint: median survival time, dose: 25.0 mg/kg/injection, schedule: Q01DX009 (ip), vehicle: water): 124 % of control
T/C (endpoint: median survival time, dose: 50.0 mg/kg/injection, schedule: Q01DX009 (ip), vehicle: water): 190 % of control and 214 % of control
T/C (endpoint: median survival time, dose: 83.3 mg/kg/injection, schedule: Q01DX009 (ip), vehicle: water): 100 % of control

O=P(O)(O)OCCCl
T/C [3]: 94 % of control
T/C [4]: 100 % of control
T/C (endpoint: mean survival time, dose: 200.0 mg/kg/injection, schedule: Q01DX009 (ip), vehicle: saline): 96 % of control
T/C [5]: 94 % of control
T/C (endpoint: mean survival time, dose: 400.0 mg/kg/injection, schedule: Q01DX009 (ip), vehicle: saline): 94 % of control
T/C (endpoint: mean survival time, dose: 400.0 mg/kg/injection, schedule: Q04DX003 (ip), vehicle: saline): 94 % of control

COCCCN1CCN(c2ccccc2OC)CC1
T/C [6]: 93 % of control
T/C [3]: 88 % of control
T/C [4]: 98 % of control
T/C [5]: 104 % of control

NC(CCCCNC(c1ccccc1)(c1ccccc1)c1ccccc1)C(=O)O (stereo not given)
T/C (endpoint: mean survival time, dose: 25.0 mg/kg/injection, schedule: Q01DX009 (ip), vehicle: saline): 96 % of control
T/C [6]: 94 % of control
T/C [3]: 103 % of control
